Reference: US20240108602A1, “TREATMENT OF MENTAL DISORDERS” (GH Research Ireland Limited, priority 2022, published 2024)
Like-named read-outs stand apart in the source and are kept apart here.

Experiments:
human hepatocytes [1] = test: Metabolite identification after incubation of 5-MeO-DMT with human hepatocytes; conditions: 5-MeO-DMT free base 10 μM, up to 120 minutes
Procedure: For incubations with cryopreserved hepatocytes, the 2 mM stock solution was diluted with Leibovitz L-15 medium to a concentration of 20 μM or 2 μM. An aliquot (250 μL) of the 20 μM and 2 μM test substance formulations was added to each hepatocyte incubation sample (250 μL), as appropriate, so that the final test substance concentration in the incubations was 10 μM or 1 μM, respectively, and incubations contained less than 1% (v/v) solvent.
Incubations were performed at ca. 37° C. in a shaking water bath (total incubation volume 0.5 mL). For 1 μM, incubations were terminated after 0, 5, 10, 20, 30, 60 and 120 minutes, by the addition of ice-cold acetonitrile (0.5 mL).
The samples were vortex mixed and centrifuged at ca 13,000 rpm for 10 minutes at room temperature. Following centrifugation, the protein-free supernatants were removed for analysis.
Blank control incubations were carried out with Leibovitz L-15 medium in place of the test substance. No cells control samples were performed with Leibovitz L-15 medium in place of hepatocytes. Aliquots of the blank control samples were taken at 120 minutes, while no cells control samples were taken at 0, 30 and 120 for 1 μM incubations and at 0 and 120 minutes for 10 μM incubations.
All 1 μM incubations were performed in duplicate, while all 10 μM incubations were performed in singlet. All samples were stored at −80° C. (nominal) prior to analysis.
Prior to sample analysis a 100 μL aliquot of each sample was evaporated to near dryness under a steady stream of nitrogen at room temperature, and subsequently reconstituted in 50 μL of mobile phase A (0.1% formic acid in water). Each sample (0, 30 and 120-minute, 10 μM) was analysed using accurate mass LC-MS to determine relative levels of parent compound at each time-point, and determine the profile of metabolites formed. Appropriate blank and control samples were also analysed. The 10 and 60-minute, 10 μM incubation samples were not analysed and were stored at −80° C. (nominal).
Data were interrogated for the presence of metabolites by comparison of retention times with the test substance reference standard and based on the accurate masses of potential metabolites using screening software (UNIFI version 1.9.4), and user defined search parameters. To confirm a suspected metabolite, the measured accurate mass of the peak detected in the sample used for structural elucidation had to be within 5 ppm of the theoretical mass in order to confirm the molecular formula.

[2] = Daily Infant Dosage (DID) and Relative Infant Dose (RID) calculated from breast milk concentrations; conditions: 5 kg infant, three 250 ml feeds
Text: When determining the potential impact of maternal drug administration on a breastfed infant, it is standard practice to calculate the Relative Infant Dose (RID) (Bennett, P. N., and L. J. Notarianni. “Risk from drugs in breast milk: an analysis by relative dose.” Br J Clin Pharmacol 42.5 (1996): P673-4). The RID is the dosage (in μg/kg/day) the infant is exposed to by the intake of breast milk, divided by the dosage (in μg/kg/day) the mother receives.
Using estimates for daily intake of breast milk and the number of feeds as well as the measured breast milk concentrations the exposure of the infant can be determined.
For example, a published estimate for daily intake of breast milk as a function of infant weight is 150 ml/kg/day. To model the exposure, it is assumed that an infant of 5 kg is fed three times over 24 hours, receiving 250 ml breast milk each time.
Since the amount actually delivered to the patient may be lower than the indicated dose, a calculation of the RID is also carried out assuming that the actually delivered amount is only 50% of the indicated dose so that any a potential underestimation of the infant exposure is avoided.

[3] = Plasma binding of 5-MIAA (unbound fraction); format: in vitro ADME
Procedure: Binding to human plasma protein was determined. Reported are the unbound fraction (fu) for three replicates as well as the mean unbound fraction, the standard deviation and the mean % recovery (Table 8).

[4] = Metabolic stability in Hμrel human hepatocyte co-culture model; conditions: human, Hμrel HumanPool primary human hepatocyte co-culture
human hepatocytes [5] = test: as above
[6] = 5-MeO-DMT, 5-MIAA and bufotenine in urine, serum and breastmilk of a lactating PPD patient, LC-MS/MS
Procedure: The second patients was lactating, and, per the clinical trial protocol, breastmilk samples were collected pre-dosing and at multiple timepoints after administration of the last dose. […] Similar analyses were carried out on patient serum and urine samples.

[7] = female, human, breast milk, inhaled

## COc1ccc2[nH]cc(CC(=O)O)c2c1 [5-MIAA, 5-methoxyindole-3-acetic acid]
Human hepatocytes [1]
  Relative Proportion of compound after incubation of 5-MeO-DMT: about 60%
Human hepatocytes [1]; listed as 5-Methoxyindole acetic acid (5-MIAA)
  Relative Proportion of compound after incubation of 5-MeO-DMT: 61%
[2]
  Daily Infant Dosage (DID) of 5-MIAA: 0.006886 mg/day
  Daily Infant Dosage (DID) of 5-MIAA per kg: 0.001377 mg/kg/day
[3]; human
  recovery: 81.4%
[3]; human plasma, read-out: plasma binding (mean fraction unbound)
  fraction unbound: ~0.5
[3]; human, read-out: Mean fu
  fraction unbound: 0.502
[3]; human, read-out: unbound fraction (fu), Replicate 1
  fraction unbound: 0.499
[3]; human, read-out: unbound fraction (fu), Replicate 2
  fraction unbound: 0.462
[3]; human, read-out: unbound fraction (fu), Replicate 3
  fraction unbound: 0.544
[4]
  half-life at 1 μM: 10.7 days
  hepatocyte CLint at 1 μM: 0.15 µL/min/1e6 cells
Human hepatocytes [5]; 1 μM Hepatocytes, 0 h
  relative LC/MS peak area: 100%
Human hepatocytes [5]; 1 μM Hepatocytes, 1 h
  relative LC/MS peak area: 98%
Human hepatocytes [5]; 1 μM Hepatocytes, 2 h
  relative LC/MS peak area: 100%
Human hepatocytes [5]; 1 μM Hepatocytes, 4 h
  relative LC/MS peak area: 99%
Human hepatocytes [5]; 1 μM Hepatocytes, 8 h
  relative LC/MS peak area: 95%
Human hepatocytes [5]; 1 μM Hepatocytes, 24 h
  relative LC/MS peak area: 99%
Human hepatocytes [5]; 1 μM Hepatocytes, 48 h
  relative LC/MS peak area: 88%
Human hepatocytes [5]; 1 μM Hepatocytes, 72 h
  relative LC/MS peak area: 82%
Human hepatocytes [5]; 1 μM Stromal cells, 0 h
  relative LC/MS peak area: 100%
Human hepatocytes [5]; 1 μM Stromal cells, 4 h
  relative LC/MS peak area: 103%
Human hepatocytes [5]; 1 μM Stromal cells, 8 h
  relative LC/MS peak area: 107%
Human hepatocytes [5]; 1 μM Stromal cells, 24 h
  relative LC/MS peak area: 108%
Human hepatocytes [5]; 1 μM Stromal cells, 48 h
  relative LC/MS peak area: 111%
Human hepatocytes [5]; 1 μM Stromal cells, 72 h
  relative LC/MS peak area: 135%
Human hepatocytes [5]; 10 μM Hepatocytes, 0 h
  relative LC/MS peak area: 100%
Human hepatocytes [5]; 10 μM Hepatocytes, 1 h
  relative LC/MS peak area: 97%
Human hepatocytes [5]; 10 μM Hepatocytes, 2 h
  relative LC/MS peak area: 100%
Human hepatocytes [5]; 10 μM Hepatocytes, 4 h
  relative LC/MS peak area: 103%
Human hepatocytes [5]; 10 μM Hepatocytes, 8 h
  relative LC/MS peak area: 96%
Human hepatocytes [5]; 10 μM Hepatocytes, 24 h
  relative LC/MS peak area: 96%
Human hepatocytes [5]; 10 μM Hepatocytes, 48 h
  relative LC/MS peak area: 86%
Human hepatocytes [5]; 10 μM Hepatocytes, 72 h
  relative LC/MS peak area: 75%
Human hepatocytes [5]; 10 μM Stromal cells, 0 h
  relative LC/MS peak area: 100%
Human hepatocytes [5]; 10 μM Stromal cells, 4 h
  relative LC/MS peak area: 101%
Human hepatocytes [5]; 10 μM Stromal cells, 8 h
  relative LC/MS peak area: 106%
Human hepatocytes [5]; 10 μM Stromal cells, 24 h
  relative LC/MS peak area: 97%
Human hepatocytes [5]; 10 μM Stromal cells, 48 h
  relative LC/MS peak area: 103%
Human hepatocytes [5]; 10 μM Stromal cells, 72 h
  relative LC/MS peak area: 115%
Human hepatocytes [5]; human hepatocytes
  metabolic turnover: low metabolic turnover
Human hepatocytes [5]; human, Hμrel HumanPool primary human hepatocyte co-culture
  predicted hepatic extraction ratio: 2%
Human hepatocytes [5]; in the presence of hepatocytes, 1 and 10 μM
  remaining abundance after 72 h: 75-82%
Human hepatocytes [5]; stromal cell controls
  disappearance with stromal cell controls: no disappearance
[6]; 2.5 hours
  urine concentration relative to serum (times higher): approx. 127 times
[6]; 120.0 hrs after last dose
  Breastmilk concentration: BLQ (BLQ: Below limit of quantification. The lower limit of quantification is 25 pg/ml for both 5-MeO-DMT and 5-MIAA in both serum and breastmilk; it is 25 pg/ml in urine for 5-MeO-DMT and 250 pg/ml for 5-MIAA in urine.)
[6]; [7]
  concentration at 2.5 h: 13.2 ng/mL
  concentration at 8.5 h: 0.359 ng/mL
[6]; female, human, urine, inhaled
  concentration at 2.5 h: 13000 ng/mL
[6]; −24.0 hrs (pre-dosing)
  Breastmilk concentration: BLQ (BLQ: Below limit of quantification. The lower limit of quantification is 25 pg/ml for both 5-MeO-DMT and 5-MIAA in both serum and breastmilk; it is 25 pg/ml in urine for 5-MeO-DMT and 250 pg/ml for 5-MIAA in urine.)
